Results as given in ChEMBL document CHEMBL1201862, “PubChem BioAssay data set” (2004).
Activity calls are given as the source filed them.

Key:
[1] = target: T1, Alkaline phosphatase, tissue-nonspecific isozyme (Homo sapiens, UniProt P05186)
T1 sequence (P05186 whole entry): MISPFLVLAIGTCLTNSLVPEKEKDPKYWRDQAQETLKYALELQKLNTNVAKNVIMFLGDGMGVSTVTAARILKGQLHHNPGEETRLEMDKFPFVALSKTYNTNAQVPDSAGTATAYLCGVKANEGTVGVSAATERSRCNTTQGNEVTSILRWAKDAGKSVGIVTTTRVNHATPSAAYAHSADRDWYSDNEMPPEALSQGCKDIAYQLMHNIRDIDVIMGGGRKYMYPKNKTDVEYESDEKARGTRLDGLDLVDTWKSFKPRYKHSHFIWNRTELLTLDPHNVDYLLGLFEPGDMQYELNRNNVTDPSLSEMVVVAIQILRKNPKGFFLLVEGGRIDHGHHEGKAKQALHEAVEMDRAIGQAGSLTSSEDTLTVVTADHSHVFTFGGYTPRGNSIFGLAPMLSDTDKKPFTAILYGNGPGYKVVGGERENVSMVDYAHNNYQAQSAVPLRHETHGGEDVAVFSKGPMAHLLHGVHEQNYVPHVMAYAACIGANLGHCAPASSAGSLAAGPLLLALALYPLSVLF

[2] = target: T2, RNA-binding protein pos-1 (Caenorhabditis elegans, UniProt G5EF15); experiment: disruptors of C. elegans POS-1 RNA interaction – biochemical, fluorescence polarization, dose response (AID 1964);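 note: purified POS-1 fused to maltose binding protein made in E. coli; potency of compounds blocking POS-1 binding to fluorescent RNA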
T2 sequence (G5EF15 whole entry): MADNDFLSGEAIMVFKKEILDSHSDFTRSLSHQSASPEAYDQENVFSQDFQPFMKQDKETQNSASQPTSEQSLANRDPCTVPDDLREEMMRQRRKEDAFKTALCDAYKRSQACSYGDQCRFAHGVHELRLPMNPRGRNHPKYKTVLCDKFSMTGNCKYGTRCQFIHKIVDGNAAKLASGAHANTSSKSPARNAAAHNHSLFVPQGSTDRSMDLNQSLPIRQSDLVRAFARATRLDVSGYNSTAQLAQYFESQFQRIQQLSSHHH

[3] = target: T3, Hexokinase HKDC1 (Homo sapiens, UniProt Q2TB90); experiment: inhibition of HKDC1 glucose phosphorylation – biochemical, W721R variant, dose response (AID 504729); format: functional
T3 sequence (Q2TB90 whole entry): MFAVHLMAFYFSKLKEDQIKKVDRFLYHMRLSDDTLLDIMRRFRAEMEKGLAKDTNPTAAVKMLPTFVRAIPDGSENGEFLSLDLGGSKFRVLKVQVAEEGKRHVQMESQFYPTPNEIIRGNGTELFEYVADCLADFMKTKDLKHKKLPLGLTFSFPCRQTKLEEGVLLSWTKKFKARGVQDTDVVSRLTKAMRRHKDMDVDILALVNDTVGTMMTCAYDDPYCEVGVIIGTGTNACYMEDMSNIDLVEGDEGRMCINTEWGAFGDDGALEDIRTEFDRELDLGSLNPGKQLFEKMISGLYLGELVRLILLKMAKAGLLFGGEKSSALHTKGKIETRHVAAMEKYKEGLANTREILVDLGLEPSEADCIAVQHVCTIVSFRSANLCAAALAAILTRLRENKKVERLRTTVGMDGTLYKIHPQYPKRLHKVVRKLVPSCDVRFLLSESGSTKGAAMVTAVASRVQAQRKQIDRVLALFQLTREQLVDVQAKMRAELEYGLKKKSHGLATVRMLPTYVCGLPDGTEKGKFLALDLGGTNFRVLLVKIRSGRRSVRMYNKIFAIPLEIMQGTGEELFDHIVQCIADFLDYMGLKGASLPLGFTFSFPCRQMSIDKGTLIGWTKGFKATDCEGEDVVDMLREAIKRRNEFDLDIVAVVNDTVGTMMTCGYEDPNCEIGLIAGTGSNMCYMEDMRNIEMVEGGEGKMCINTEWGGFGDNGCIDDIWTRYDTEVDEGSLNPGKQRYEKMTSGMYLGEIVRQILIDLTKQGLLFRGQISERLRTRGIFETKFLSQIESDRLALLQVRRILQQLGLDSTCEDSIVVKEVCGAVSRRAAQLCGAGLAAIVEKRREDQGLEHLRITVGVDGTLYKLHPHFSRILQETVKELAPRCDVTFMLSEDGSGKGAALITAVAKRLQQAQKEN

[4] = tested on: HT-1080; experiment: HT1080 cell viability loss – fluorescence readout (AID 620); format: functional, cell-based; settings: Homo sapiens
[5] = target: Luciferin 4-monooxygenase (Photinus pyralis, UniProt P08659); experiment: Counter Screen for Luciferase-based Assay Positives. [Related pubchem assays: 620, 618, 411 ]
[6] = target: Melanocortin receptor 4 (Homo sapiens, UniProt P32245); format: functional, cell-based;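 note: Cell-based assay with luminescence read-out, confirmatory dose-response testing for agonist activity of biased ligands at MC4R; human U2OS cells with tagged receptor and beta-arrestin; potency of agonists that increase receptor coupling to beta-arrestin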
[7] = tested on: INS1; experiment: INS-1E survival protection against cytokine death – cell-based, luminescence, retest, dose response (AID 449756); format: functional; settings: Rattus norvegicus;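 note: cell death triggered by IL-1 beta plus TNF-alpha plus IFN-gamma mixture; protective hits raise ATP signal compared with cytokine alone wells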
[8] = luciferase reporter signal suppression in cells – H4 neuroglioma cells, luminescence, dose response (AID 1990); format: functional, cell-based
[9] = tested on: Streptococcus sp. 'group A'; experiment: Streptococcus pyogenes SK(-)GAS viability under kanamycin – luminescence, BacTiterGlo, confirmation, counter-screen for streptokinase expression inhibitor project, dose response (AID 1900); format: functional, organism-based
[10] = microbe, parasite or virus in culture; format: functional; settings: Mycobacterium tuberculosis
[11] = target: T4, Heat shock factor protein 1 (Mus musculus, UniProt P38532); experiment: decrease of HSF1-responsive luciferase luminescence – cell-based, NIH3T3, dose retest, confirmation (AID 2382); format: functional;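 note: NIH3T3 fibroblasts with HSF1-driven luciferase reporter stressed by proteasome inhibitor MG132; luminescence from HSF1-driven luciferase expression after 8 hours of MG132 stress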
T4 sequence (P38532 whole entry): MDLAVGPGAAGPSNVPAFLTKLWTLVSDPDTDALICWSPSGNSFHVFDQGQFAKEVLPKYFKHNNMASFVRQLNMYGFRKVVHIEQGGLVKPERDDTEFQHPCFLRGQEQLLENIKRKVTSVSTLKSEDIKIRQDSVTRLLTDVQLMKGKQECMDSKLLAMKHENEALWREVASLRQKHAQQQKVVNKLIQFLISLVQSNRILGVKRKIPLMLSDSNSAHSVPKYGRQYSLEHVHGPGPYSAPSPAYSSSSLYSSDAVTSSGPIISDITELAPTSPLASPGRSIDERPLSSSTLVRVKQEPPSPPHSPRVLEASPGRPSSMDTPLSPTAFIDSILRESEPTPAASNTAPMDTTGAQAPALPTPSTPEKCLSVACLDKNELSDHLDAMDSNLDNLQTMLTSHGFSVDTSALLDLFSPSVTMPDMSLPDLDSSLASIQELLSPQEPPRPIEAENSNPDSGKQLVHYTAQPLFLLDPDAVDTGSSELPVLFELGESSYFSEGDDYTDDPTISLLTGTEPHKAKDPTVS

[12] = tested on: Streptococcus; experiment: GAS UMAA2166 growth inhibition – luminescence, BacTiterGlo, counter-screen for streptokinase expression inhibitor project, dose response (AID 1915); format: functional, organism-based;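 note: potency for reduction of bacterial viability or growth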
[13] = viability of PTEN-deleted HCT116 cells – cell-based, HCT116 PTEN knockout, dose response (AID 1047); format: functional;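 note: HCT116 colon tumor cells with PTEN knocked out; cells exposed to compound for 60 hours before readout; potency for loss of cell viability measured by luminescence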
[14] = Luminescence Cell-Based Dose Response HTS to Identify Inhibitors of 5'UTR Stem-Loop Driven Prion Protein mRNA Translation in H4 Neuroglioblastoma Cells. [Related pubchem assays: 1827 (Project Summary), 1813 (Primary HTS)]; format: functional
[15] = target: T5, Streptokinase A (Streptococcus pyogenes serotype M1, UniProt P10520); experiment: viability-normalized secreted streptokinase activity reduction – plasminogen activation absorbance, OD405, dose response (AID 1914); format: functional, Streptococcus pyogenes M1 GAS;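 note: secreted streptokinase activity via plasminogen activation per viability signal from cell pellet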
T5 sequence (P10520 whole entry): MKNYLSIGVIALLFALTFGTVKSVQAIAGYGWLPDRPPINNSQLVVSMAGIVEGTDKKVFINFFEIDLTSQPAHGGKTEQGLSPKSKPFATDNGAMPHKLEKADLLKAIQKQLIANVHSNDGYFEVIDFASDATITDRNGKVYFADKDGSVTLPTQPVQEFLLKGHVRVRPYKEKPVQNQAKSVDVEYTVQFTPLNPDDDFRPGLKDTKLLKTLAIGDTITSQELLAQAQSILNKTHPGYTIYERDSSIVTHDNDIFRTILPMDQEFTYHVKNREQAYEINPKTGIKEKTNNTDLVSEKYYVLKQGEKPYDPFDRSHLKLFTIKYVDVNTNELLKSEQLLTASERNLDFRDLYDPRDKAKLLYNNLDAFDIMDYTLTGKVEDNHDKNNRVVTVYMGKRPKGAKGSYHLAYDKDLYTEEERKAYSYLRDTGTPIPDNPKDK

[16] = HEK-293T viability loss after treatment – luminescence, T-cell screen hits, cytotoxicity control for TCR NF-kB inhibitor project, dose response (AID 489026); format: functional, cell-based;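 note: cells exposed to compound about 14 hours before the viability readout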
[17] = target: Neurotensin receptor type 1 (Homo sapiens, UniProt P30989); format: functional;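 note: Image-based confirmatory dose-response assay measuring agonist activity at NTR1; NTR1-expressing U2OS osteosarcoma cells imaged for beta-arrestin GFP spot formation; agonist potency where compounds increase beta-arrestin recruitment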
[18] = alpha-synuclein stem-loop luciferase translation blockers – H4 neuroglioma cells, luminescence, confirmation (AID 1988); format: functional, cell-based
[19] = viability of HCT116 lacking mutant beta-catenin – cell-based, human colon tumor, dose response (AID 1045); format: functional;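 note: HCT116 colon tumor cells with beta catenin knocked out; cells exposed to compound for 60 hours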
[20] = target: T6, Polyadenylate-binding protein 1 (Homo sapiens, UniProt P11940); experiment: blockers of PABP interaction with poly(A) – biochemical, fluorescence polarization, […] (AID 2014)
[21] = target: T6, Polyadenylate-binding protein 1; experiment: PABP inhibition in translation initiation, SAR follow-up (AID 435018); format: functional
[22] = target: T7, Eukaryotic translation initiation factor 4H (Homo sapiens, UniProt Q15056); experiment: eIF4H binding inhibition – biochemical, uHTS, fluorescence polarization, translation initiation inhibitor project, primary screen (AID 2012)
[23] = target: T7, Eukaryotic translation initiation factor 4H; experiment: inhibitors of translation initiation factor eIF4H – SAR follow-up (AID 435011); format: functional
[24] = target: T8, Eukaryotic translation initiation factor 2-alpha kinase 3 (Homo sapiens, UniProt Q9NZJ5); experiment: Counterscreen assay for PERK inhibitors: Dose response cell-based high throughput screening assay to measure inhibition of PERK at 6 hours. [Related pubchem assays: 1522, 1416 ]; format: functional
T8 sequence (Q9NZJ5 whole entry): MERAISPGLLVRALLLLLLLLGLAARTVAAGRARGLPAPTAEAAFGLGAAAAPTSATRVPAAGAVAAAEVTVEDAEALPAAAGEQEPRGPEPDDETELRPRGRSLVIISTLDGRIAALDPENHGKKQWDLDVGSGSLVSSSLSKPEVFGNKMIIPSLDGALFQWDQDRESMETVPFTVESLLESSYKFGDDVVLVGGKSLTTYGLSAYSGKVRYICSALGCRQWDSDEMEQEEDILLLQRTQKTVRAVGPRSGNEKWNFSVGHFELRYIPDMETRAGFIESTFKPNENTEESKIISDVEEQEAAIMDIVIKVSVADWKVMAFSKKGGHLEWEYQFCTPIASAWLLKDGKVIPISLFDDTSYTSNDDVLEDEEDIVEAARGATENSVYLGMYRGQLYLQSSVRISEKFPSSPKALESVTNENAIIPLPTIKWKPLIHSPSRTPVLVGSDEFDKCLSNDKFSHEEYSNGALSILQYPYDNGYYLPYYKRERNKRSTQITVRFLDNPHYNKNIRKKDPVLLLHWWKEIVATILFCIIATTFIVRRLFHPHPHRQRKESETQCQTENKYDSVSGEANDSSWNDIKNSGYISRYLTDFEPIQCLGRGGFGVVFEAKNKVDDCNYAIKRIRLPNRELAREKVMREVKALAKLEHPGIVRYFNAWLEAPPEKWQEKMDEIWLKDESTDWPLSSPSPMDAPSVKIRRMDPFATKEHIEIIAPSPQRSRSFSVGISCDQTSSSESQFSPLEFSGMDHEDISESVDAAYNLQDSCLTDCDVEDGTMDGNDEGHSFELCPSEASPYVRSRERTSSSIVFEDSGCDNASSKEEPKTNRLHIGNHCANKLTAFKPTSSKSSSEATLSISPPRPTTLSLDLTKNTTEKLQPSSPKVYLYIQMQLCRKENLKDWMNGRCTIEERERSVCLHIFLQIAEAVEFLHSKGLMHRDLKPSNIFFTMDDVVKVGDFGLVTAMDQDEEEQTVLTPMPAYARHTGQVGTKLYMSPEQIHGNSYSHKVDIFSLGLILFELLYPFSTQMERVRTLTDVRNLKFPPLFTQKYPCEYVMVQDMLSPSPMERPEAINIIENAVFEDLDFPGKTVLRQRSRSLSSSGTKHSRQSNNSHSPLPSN

[25] = target: T8, Eukaryotic translation initiation factor 2-alpha kinase 3; experiment: Dose response cell-based high-throughput screening assay to measure PERK inhibition. [Related pubchem assays: 1416 ]; format: functional
[26] = tested on: HeLa; experiment: viability loss in HeLa cells – cell-based, 24 h, cherry-picked samples, cytotoxicity control, dose response (AID 504726); format: functional; settings: Homo sapiens;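 note: potency for cytotoxicity as loss of luminescence signal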

T6 sequence (P11940 whole entry): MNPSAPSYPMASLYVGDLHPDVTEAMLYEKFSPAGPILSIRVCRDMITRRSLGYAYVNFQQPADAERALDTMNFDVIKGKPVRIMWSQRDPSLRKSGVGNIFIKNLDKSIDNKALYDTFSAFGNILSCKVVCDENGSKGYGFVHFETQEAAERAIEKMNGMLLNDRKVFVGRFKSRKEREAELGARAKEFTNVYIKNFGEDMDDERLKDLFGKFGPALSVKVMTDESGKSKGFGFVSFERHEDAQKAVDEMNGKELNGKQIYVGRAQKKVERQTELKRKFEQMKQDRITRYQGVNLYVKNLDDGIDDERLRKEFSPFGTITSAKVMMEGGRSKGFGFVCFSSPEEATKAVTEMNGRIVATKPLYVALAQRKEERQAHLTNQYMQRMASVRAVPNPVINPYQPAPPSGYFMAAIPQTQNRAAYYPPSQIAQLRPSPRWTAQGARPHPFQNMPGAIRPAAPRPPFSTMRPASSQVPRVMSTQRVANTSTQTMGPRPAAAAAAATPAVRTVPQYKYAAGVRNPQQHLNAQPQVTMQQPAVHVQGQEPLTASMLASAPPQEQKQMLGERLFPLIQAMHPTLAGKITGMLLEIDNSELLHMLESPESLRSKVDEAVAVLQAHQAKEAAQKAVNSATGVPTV
Chain of Luciferin 4-monooxygenase (P08659 whole entry): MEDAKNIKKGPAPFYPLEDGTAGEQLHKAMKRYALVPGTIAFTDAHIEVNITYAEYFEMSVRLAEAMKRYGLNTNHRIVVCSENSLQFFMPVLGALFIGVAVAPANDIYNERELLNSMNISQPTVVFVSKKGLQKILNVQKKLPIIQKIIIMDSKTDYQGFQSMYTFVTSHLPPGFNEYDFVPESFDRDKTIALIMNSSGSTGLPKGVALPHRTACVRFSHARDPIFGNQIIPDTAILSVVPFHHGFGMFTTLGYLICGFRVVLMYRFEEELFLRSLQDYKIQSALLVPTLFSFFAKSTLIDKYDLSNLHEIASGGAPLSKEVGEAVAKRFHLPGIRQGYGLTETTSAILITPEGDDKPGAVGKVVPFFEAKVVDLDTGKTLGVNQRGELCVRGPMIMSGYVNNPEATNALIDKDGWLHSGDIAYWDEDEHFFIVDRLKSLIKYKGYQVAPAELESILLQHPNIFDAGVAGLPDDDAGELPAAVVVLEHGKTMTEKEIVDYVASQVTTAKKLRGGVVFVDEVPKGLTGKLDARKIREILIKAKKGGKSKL
Chain of Melanocortin receptor 4 (P32245 whole entry): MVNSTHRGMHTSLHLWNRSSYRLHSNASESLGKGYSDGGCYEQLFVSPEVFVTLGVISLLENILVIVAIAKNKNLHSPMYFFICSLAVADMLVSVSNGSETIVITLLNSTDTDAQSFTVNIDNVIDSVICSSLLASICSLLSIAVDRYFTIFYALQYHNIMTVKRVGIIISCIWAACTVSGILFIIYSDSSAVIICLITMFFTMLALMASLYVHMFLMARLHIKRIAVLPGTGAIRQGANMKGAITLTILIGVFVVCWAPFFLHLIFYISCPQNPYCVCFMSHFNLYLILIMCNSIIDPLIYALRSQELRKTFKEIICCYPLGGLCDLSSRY
Chain of Neurotensin receptor type 1 (P30989 whole entry): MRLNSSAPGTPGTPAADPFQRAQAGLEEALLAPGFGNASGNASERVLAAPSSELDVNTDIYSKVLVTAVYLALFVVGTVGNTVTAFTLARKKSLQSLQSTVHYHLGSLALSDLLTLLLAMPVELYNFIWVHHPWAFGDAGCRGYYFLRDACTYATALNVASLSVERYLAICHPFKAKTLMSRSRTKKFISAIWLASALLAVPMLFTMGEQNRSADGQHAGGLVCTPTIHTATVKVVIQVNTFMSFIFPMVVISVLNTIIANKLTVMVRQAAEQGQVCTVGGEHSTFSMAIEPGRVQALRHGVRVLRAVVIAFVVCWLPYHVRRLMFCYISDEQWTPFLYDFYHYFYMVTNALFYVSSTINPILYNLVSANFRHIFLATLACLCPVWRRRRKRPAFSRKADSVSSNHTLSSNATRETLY

Nc1ccc(S(=O)(=O)NNC(=O)C(=O)NNc2ccccn2)cc1
EC50 [1]: 26.5 µM (active) | EC50 [2]: 137 µM (active)

Cc1cc(C(=O)NNC(=O)CCCCC(=O)NNC(=O)c2cc(C)n[nH]2)[nH]n1
EC50 [1]: 15.5 µM (active)

Cc1cccc(N2C(=O)NC(=O)/C(=C\c3ccc4c(c3)CCCN4Cc3ccccc3)C2=O)c1
IC50 [3]: 27.6 µM (inactive)

COC(=O)c1ccc(-c2nc3cc(N)ccc3o2)cc1
EC50 [4]: > 50 µM (not active) | EC50 [5]: 0.2 µM (active)

CC1=NNC(=O)/C1=C\c1cn(-c2ccccc2)nc1-c1ccc(Cl)cc1
EC50 [6]: > 89.2 µM (inactive) | AC50 [7]: 8.09 µM (active) | EC50 [8]: > 30 µM (inconclusive) | EC50 [9]: 5 µM (active) | CC50 [10]: 20.2 µM (active) | EC50 [11]: 6.61 µM (active) | EC50 [12]: 14.5 µM (active) | EC50 [13]: 3.63 µM (active) | EC50 [14]: > 60 µM (not active) | EC50 [15]: 4.83 µM (active) | IC50 [16]: > 80 µM (inactive) | EC50 [17]: 16.8 µM (active) | EC50 [18]: 7.48 µM (active) | EC50 [19]: 3.51 µM (active)

Cc1ccc(NC(=O)CN2C(=O)N/C(=C/c3ccccc3OCc3cccc(C(=O)O)c3)C2=O)cc1
IC50 [20]: > 100 µM (inactive) | IC50 [21]: > 100 µM (inactive) | IC50 [22]: 11.1 µM (active) | IC50 [23]: 8.36 µM (active)

O=C(NNc1nc2ccccc2s1)C1CC1
EC50 [24]: > 55.7 µM (not active) | EC50 [25]: > 55.7 µM (not active)

O=C(CCCC(=O)N/N=C/c1ccccc1C(=O)O)N/N=C/c1ccccc1C(=O)O
EC50 [24]: > 55.7 µM (not active) | EC50 [25]: > 55.7 µM (not active)

NNc1nnc2c3cc(F)ccc3n(Cc3ccccc3)c2n1
AC50 [26]: 217 µM (active)
